The text below walks through data of patent publication EP0983294B1, “B-RING E[…] SULPHATES” (Wyeth, priority 1997, dated 1998).

This test has as its system Immature rats. The test can be described thus: In vivo uterotropic activity. The settings on record: 0.2 and 2 mg/kg for three days (S.C.). The procedure: Immature rats were treated with doses of 0.2 and 2 mg/kg 5,7,9-estratriene-3β,17β-diol for three days (S.C.) as well as additional groups (n=6) of rats treated with 0.5 µg ethinyl estradiol and vehicle as positive and negative controls, respectively.

On to `C[C@]12CCc3c(ccc4c3CC[C@H](O)C4)[C@@H]1CC[C@@H]2O` [5,7,9-estratriene-3β,17β-diol], for which the uterine weight entry was “uterine weight gains at both concentrations”.
